One data set concerns the target T1, HCV NS3-NS4A protease (Hepatitis C virus genotype 1a, UniProt P27958).
T1 construct: HCV NS3-NS4A protease, which was obtained according to Taremi et al; made in house
The data set is described as follows: HCV Protease Assay (SensoLyte 620 HCV Protease Assay kit). Type of data set: biochemical. Particulars: 1.2 nM HCV NS3-NS4A protease, 60 min, room temperature. How it is done: Measurement of the inhibitory effect of compounds on HCV protease activity was performed with the SensoLyte™ 620 HCV Protease Assay kit from AnaSpec, Inc. (San Jose, Calif.) under conditions described by the supplier using 1.2 nM HCV NS3-NS4A protease, which was obtained according to Taremi et al. (Protein Science, 1998, 7, 2143-2149). The compounds were tested at a variety of concentrations in assay buffer containing a final DMSO concentration of 5%. Reactions were allowed to proceed for 60 min at room temperature and fluorescence measurements were recorded with a Tecan Infinity Spectrofluorimeter. The IC50 values were determined from the percent inhibition versus concentration data using a sigmoidal non-linear regression analysis based on four parameters with Tecan Magellan software.

Another data set can be described thus: in vitro. The note with it: human; GS4.1 cells, Cell Titer 96 AQueous One Solution. The format is cell-based. As for the experimental part: For cytotoxicity evaluation, GS4.1 cells were treated with compounds as described above and cellular viability was monitored using the Cell Titer 96 AQueous One Solution Cell Proliferation Assay (Promega). CC50 values were determined from the % cytotoxicity versus concentration data with Tecan Magellan software as described above.

Data set [1] has as its system HCV Con1 subgenomic replicon in Huh-7 cells (GS4.1 cells). The data set is described as follows: HCV Replicon Assay (NS4A ELISA). Type of data set: cell-based. The note with it: Hepatitis C virus, 72 hr. How it is done: Huh-7 cells containing HCV Con1 subgenomic replicon (GS4.1 cells) were grown in Dulbecco's Modified Eagle Medium (DMEM) supplemented with 10% fetal bovine serum (FBS), 2 mM L-glutamine, 110 mg/L sodium pyruvate, 1× non-essential amino acids, 100 U/mL penicillin-streptomycin, and 0.5 mg/mL G418 (Invitrogen). For dose-response testing, the cells were seeded in 96-well plates at 7.5×10^3 cells/well in a volume of 50 μL, and incubated at 37° C./5% CO2. Three hours after plating, 50 μL of ten 2-fold serial dilutions of compounds (highest concentration, 75 μM) were added, and cell cultures were incubated at 37° C./5% CO2 in the presence of 0.5% DMSO. Alternatively, compounds were tested at a single concentration of 15 μM. In all cases, Huh-7 cells lacking the HCV replicon served as negative control. The cells were incubated in the presence of compounds for 72 hr after which they were monitored for expression of the NS4A protein by enzyme-linked immunosorbent assay (ELISA). For this, the plates were then fixed for 1 min with acetone/methanol (1:1, v/v), washed twice with phosphate-buffered saline (PBS), 0.1% Tween 20, blocked for 1 hr at room temperature with TNE buffer containing 10% FBS and then incubated for 2 hr at 37° C. with the anti-NS4A mouse monoclonal antibody A-236 (ViroGen) diluted in the same buffer. After washing three times with PBS, 0.1% Tween 20, the cells were incubated 1 hr at 37° C. with anti-mouse immunoglobulin G-peroxidase conjugate in TNE, 10% FBS. After washing as described above, the reaction was developed with O-phenylenediamine (Zymed). The reaction was stopped after 30 min with 2 N H2SO4, and absorbance was read at 492 nm using Sunrise Tecan spectrophotometer. EC50 values were determined from the % inhibition versus concentration data using a sigmoidal non-linear regression analysis based on four parameters with Tecan Magellan software.

Structures are written as SMILES. pEC50, pIC50: −log10 of the molar value.

Usually pIC50 stands for the IC50 on a negative log10 scale, so that one unit is a factor of ten. Low values mean a large IC50, high ones a small IC50. What is called CC50 is the concentration that lowers cell viability or growth by half. In general, pEC50 refers to the EC50 on a negative log10 scale, so that one unit is a factor of ten.

T1 sequence (P27958 1027-1208): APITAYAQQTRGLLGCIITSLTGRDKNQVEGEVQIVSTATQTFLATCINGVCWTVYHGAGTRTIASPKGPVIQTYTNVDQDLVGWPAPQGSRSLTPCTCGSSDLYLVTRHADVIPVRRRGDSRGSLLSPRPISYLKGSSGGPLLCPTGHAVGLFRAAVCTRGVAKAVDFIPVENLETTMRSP

Consider `COc1ccc2c(O[C@H]3CCN4C(=O)N(C)CCCC/C=C\[C@@H]5C[C@@]5(C(=O)NS(=O)(=O)C5CC5)NC(=O)[C@@H]4C3)cc(-c3nc(C(F)(F)F)cs3)nc2c1C` [Compound 51, 1-cyclopropanesulfonic acid{(Z)-(1S,4R,6S,18S)-18-[7-methoxy-8-methyl-2-(4-trifluoromethyl-thiazol-2-yl)-quinolin-4-yloxy]-13-methyl-2,14-dioxo-3,13,15-triaza-tricyclo[13.4.0.0*4,6*]nonadec-7-ene-4-carbonyl}amide], for which, at HCV NS3-NS4A protease, the negative-log IC50 (pIC50) was > 6.00. For the same compound, the CC50 in the data set “in vitro” was 10 to 75 µM. The pEC50 in data set [1] was > 6.00.
Consider `COc1ccc2c(O[C@H]3CCN4C(=O)N(C)CCOC/C=C\[C@@H]5C[C@@]5(C(=O)NS(=O)(=O)C5(C)CC5)NC(=O)[C@@H]4C3)cc(-c3nc(C(F)(F)F)cs3)nc2c1C` [Compound 54], for which the pIC50 on HCV NS3-NS4A protease is > 6.00. In the data set “in vitro”, the CC50 is > 75 µM. Moreover, in data set [1], the negative logarithm of the EC50 (pEC50) was 5.00 to 6.00.
As to `C#Cc1csc(-c2cc(O[C@H]3CCN4C(=O)N(C)CCCC/C=C\[C@@H]5C[C@@]5(C(=O)NS(=O)(=O)C5(C)CC5)NC(=O)[C@@H]4C3)c3ccc(OC)c(C)c3n2)n1` [Compound 55, 1-methyl-cycloprpoanesulfonic acid{(Z)-(1S,4R,6S,18S)-18-[2-(4-ethynyl-thiazol-2-yl)-7-methoxy-8-methyl-quinolin-4-yl-oxy]-13-methyl-2,14-dioxo-3,13,15-triaza-tricyclo[13.4.0.0*4,6*]nonadec-7-ene-4-carbonyl}-amide], on HCV NS3-NS4A protease, the negative logarithm of the IC50 (pIC50) is > 6.00. For the same compound, the 50% cytotoxic concentration (CC50) in “in vitro” was in the range of 10 to 75 µM. The pEC50 in data set [1] is > 6.00.
As for `COc1ccc2c(O[C@H]3CCN4C(=O)N(C)CCCC/C=C\[C@@H]5C[C@@]5(C(=O)NS(=O)(=O)C5(C)CC5)NC(=O)[C@@H]4C3)nc(-c3ccc(F)cc3)nc2c1C` [Compound 56], the pIC50 at HCV NS3-NS4A protease was > 6.00. The half-maximal cytotoxic concentration (CC50) in “in vitro” was > 75 µM. In addition, the pEC50 in data set [1] is > 6.00.
On to `COc1ccc2c(O[C@H]3CCN4C(=O)N(C)CCCC/C=C\[C@@H]5C[C@@]5(C(=O)NS(=O)(=O)C5(C)CC5)NC(=O)[C@@H]4C3)nc(-c3nc(C(F)(F)F)cs3)nc2c1C` [Compound 57, 1-methyl-cyclopropanesulfonic acid {(Z)-(1S,4R,6S,18S)-18-[7-methoxy-8-methyl-2-(4-trifluoromethyl-thiazol-2-yl)quinazolin-4-yloxy]-13-methyl-2,14-dioxo-3,13,15-triaza-tricyclo[13.4.0.0*4,6*]nonadec-7-ene-4-carbonyl}-amide], for which the pIC50 at HCV NS3-NS4A protease is > 6.00. Also, the CC50 in “in vitro” was in the range of 10 to 75 µM. The negative logarithm of the EC50 (pEC50) in data set [1] was > 6.00.
For `COc1ccc2c(O[C@H]3CCN4C(=O)CCCCC/C=C\[C@@H]5C[C@@]5(C(=O)NS(=O)(=O)C5CC5)NC(=O)[C@@H]4C3)cc(-c3nc(C(F)(F)F)cs3)nc2c1C` [Compound 58], the pIC50 at HCV NS3-NS4A protease was > 6.00. The compound also came in with a half-maximal cytotoxic concentration (CC50) in “in vitro” of 10 to 75 µM. Besides, the negative-log EC50 (pEC50) in data set [1] was > 6.00.

The values above are taken from patent publication US8993595B2, “Macrocyclic serine protease inhibitors” (priority 2009, dated 2015).
